From ChEMBL document CHEMBL1909046, “DrugMatrix in vitro pharmacology data”

How the values were obtained:
[1] = target: Aldo-keto reductase family 1 member B1 (Rattus norvegicus, UniProt P07943); assay: biochemical; format: tissue-based, Lens of camera-type eye;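 further: inhibition of aldose reductase enzyme activity, measured with DL-glyceraldehyde as the substrate; in other assays of this panel Not Active means under 50% inhibition at 10 µM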
[2] = target: Epidermal growth factor receptor (Homo sapiens, UniProt P00533); assay: DRUGMATRIX: Protein Tyrosine Kinase, EGF Receptor enzyme inhibition (substrate: Poly(Glu:Tyr)); format: cell-based, Insect cells; details: insect cells; Not Active = under 50% inhibition at 10 µM
[3] = DRUGMATRIX: Phosphodiesterase PDE3 enzyme inhibition (substrate: [3H]cAMP + cAMP); format: tissue-based, Homo sapiens; details: platelet; Not Active = under 50% inhibition at 10 µM
[4] = target: T1, Alpha-1B adrenergic receptor (Rattus norvegicus, UniProt P15823); assay: DRUGMATRIX: Alpha-1B adrenergic receptor radioligand binding (ligand: prazosin); format: cell membranes, Wistar, Liver, Membrane; details: Not Active = under 50% inhibition at 10 µM
T1 sequence (P15823 whole entry): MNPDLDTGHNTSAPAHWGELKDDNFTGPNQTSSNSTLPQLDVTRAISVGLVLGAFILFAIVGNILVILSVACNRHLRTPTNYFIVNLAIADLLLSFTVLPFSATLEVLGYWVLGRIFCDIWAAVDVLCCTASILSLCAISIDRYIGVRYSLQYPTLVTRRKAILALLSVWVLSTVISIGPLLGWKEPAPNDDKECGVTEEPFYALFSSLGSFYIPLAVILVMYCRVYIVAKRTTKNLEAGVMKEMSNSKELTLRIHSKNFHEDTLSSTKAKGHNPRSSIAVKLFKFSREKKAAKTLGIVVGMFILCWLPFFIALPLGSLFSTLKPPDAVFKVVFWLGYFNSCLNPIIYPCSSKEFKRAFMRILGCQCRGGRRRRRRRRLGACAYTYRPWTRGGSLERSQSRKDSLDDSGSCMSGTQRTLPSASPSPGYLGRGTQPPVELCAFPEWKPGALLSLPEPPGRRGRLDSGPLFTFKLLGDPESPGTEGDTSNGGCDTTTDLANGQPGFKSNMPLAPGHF

[5] = target: T2, Cholecystokinin receptor type A (Homo sapiens, UniProt P32238); format: cell membranes, Membrane; details: 1321-n1; further: in other assays of this panel Not Active means under 50% inhibition at 10 µM
T2 sequence (P32238 whole entry): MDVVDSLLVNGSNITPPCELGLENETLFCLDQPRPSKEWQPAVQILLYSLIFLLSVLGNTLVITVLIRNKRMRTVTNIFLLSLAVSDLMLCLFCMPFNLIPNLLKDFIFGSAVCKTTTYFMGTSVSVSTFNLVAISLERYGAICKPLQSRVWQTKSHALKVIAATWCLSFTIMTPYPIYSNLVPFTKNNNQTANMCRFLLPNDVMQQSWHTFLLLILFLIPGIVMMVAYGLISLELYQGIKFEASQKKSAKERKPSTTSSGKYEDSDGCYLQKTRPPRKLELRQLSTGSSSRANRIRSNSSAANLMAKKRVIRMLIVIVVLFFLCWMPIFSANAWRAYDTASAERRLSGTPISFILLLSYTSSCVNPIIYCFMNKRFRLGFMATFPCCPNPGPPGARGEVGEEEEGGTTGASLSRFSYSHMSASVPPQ

[6] = target: T3, Nitric oxide synthase, inducible (Mus musculus, UniProt P29477); parameters: species or system Escherichia coli;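 further: inhibition of iNOS enzyme activity measured with L-arginine as substrate; in other assays of this panel Not Active means under 50% inhibition at 10 µM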
T3 sequence (P29477 whole entry): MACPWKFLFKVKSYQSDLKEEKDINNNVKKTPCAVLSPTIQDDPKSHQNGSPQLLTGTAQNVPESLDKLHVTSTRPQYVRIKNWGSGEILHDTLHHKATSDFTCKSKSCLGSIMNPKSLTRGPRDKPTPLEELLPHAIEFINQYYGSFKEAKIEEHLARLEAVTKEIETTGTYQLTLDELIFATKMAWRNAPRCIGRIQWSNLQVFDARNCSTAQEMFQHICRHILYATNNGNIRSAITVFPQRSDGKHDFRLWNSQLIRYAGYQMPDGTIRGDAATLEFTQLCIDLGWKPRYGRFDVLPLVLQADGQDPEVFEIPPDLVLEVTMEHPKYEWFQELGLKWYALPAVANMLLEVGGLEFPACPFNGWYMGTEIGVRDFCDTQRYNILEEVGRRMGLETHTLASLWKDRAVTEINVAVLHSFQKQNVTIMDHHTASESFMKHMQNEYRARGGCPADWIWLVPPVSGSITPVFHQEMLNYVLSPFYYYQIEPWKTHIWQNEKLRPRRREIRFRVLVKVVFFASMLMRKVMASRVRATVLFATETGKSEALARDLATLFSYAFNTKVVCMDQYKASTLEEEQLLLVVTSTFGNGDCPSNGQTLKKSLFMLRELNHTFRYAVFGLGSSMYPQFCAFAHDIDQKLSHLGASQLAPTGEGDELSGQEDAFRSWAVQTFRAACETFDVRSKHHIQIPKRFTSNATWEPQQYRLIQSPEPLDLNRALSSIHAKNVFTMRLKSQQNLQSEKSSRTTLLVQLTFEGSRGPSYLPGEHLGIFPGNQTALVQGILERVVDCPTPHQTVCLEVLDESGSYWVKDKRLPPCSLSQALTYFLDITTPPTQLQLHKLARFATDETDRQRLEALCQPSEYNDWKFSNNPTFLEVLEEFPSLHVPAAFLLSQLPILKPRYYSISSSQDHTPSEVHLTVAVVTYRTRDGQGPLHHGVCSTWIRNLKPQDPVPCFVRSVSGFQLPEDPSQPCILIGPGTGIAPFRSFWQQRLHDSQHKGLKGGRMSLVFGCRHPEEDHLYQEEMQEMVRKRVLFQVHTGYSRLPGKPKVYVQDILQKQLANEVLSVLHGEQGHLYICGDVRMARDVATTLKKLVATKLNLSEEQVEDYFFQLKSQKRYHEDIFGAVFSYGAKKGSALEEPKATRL

[7] = DRUGMATRIX: Nicotinic Acetylcholine radioligand binding (ligand: [125I] Epibatidine); format: cell membranes, Membrane; details: imr-32; Not Active = under 50% inhibition at 10 µM

Chain of Epidermal growth factor receptor (P00533 whole entry): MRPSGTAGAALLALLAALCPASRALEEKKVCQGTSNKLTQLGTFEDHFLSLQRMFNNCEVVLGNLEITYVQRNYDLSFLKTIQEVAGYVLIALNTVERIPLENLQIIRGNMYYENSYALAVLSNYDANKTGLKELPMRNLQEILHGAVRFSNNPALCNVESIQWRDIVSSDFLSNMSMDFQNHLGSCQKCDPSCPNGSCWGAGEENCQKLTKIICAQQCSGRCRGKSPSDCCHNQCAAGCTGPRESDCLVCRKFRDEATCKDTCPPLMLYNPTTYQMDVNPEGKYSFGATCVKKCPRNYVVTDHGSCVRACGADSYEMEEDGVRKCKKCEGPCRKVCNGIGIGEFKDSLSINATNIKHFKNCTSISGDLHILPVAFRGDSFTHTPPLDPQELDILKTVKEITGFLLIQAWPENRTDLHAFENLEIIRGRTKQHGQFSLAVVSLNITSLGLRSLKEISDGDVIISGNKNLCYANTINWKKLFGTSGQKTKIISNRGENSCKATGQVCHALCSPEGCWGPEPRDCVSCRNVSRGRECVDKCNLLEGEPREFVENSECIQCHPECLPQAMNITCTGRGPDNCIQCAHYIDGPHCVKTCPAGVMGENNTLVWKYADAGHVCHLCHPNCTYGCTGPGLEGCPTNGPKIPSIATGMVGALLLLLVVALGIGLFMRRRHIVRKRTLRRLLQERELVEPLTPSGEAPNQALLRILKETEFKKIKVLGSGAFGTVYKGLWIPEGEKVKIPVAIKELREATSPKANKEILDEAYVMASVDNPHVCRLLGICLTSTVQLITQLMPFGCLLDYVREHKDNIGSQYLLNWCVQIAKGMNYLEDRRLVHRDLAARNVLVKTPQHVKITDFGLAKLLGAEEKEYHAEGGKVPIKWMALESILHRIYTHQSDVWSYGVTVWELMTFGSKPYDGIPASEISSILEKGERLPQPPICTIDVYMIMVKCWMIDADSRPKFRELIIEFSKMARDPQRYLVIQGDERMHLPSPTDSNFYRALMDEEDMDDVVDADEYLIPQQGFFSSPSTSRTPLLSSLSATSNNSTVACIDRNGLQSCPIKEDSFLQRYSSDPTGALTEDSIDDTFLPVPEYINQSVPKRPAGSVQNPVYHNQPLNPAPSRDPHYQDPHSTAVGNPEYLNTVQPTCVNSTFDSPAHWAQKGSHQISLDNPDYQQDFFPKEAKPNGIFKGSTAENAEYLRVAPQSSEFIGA

NC[C@H]1O[C@H](O[C@H]2[C@H](O)[C@@H](O[C@H]3O[C@H](CO)[C@@H](O)[C@H](N)[C@H]3O)[C@H](N)C[C@@H]2N)[C@H](O)[C@@H](O)[C@@H]1O [KANAMYCIN]
Not Active: IC50 [1] | IC50 [2] | IC50 [3] | Ki [3] | IC50 [4] | IC50 [5] | IC50 [6] | IC50 [7] | Ki [7]

CC[C@H](C)C(=O)O[C@H]1C[C@@H](C)C=C2C=C[C@H](C)[C@H](CC[C@@H]3C[C@@H](O)CC(=O)O3)[C@H]21 [LOVASTATIN]
Not Active: IC50 [1] | IC50 [2] | IC50 [3] | Ki [3] | IC50 [4] | IC50 [5] | IC50 [6] | IC50 [7] | Ki [7]

CC(C(=O)O)c1ccc(CC2CCCC2=O)cc1 (stereo not drawn) [LOXOPROFEN]
Not Active: IC50 [1] | IC50 [2] | IC50 [3] | Ki [3] | IC50 [4] | IC50 [5] | IC50 [6] | IC50 [7] | Ki [7]

Cc1cccc(Nc2ccccc2C(=O)O)c1C [MEFENAMIC ACID]
Not Active: IC50 [1] | IC50 [2] | IC50 [3] | Ki [3] | IC50 [4] | IC50 [5] | IC50 [6] | IC50 [7] | Ki [7]

CC(=O)O[C@]1(C(C)=O)CC[C@H]2[C@@H]3C=C(C)C4=CC(=O)CC[C@]4(C)[C@H]3CC[C@@]21C [MEGESTROL ACETATE]
Not Active: IC50 [1] | IC50 [2] | IC50 [3] | Ki [3] | IC50 [4] | IC50 [5] | IC50 [6] | IC50 [7] | Ki [7]

COc1ccccc1OCC(O)COC(N)=O (stereo not drawn) [METHOCARBAMOL]
Not Active: IC50 [1] | IC50 [2] | IC50 [3] | Ki [3] | IC50 [4] | IC50 [5] | IC50 [6] | IC50 [7] | Ki [7]

CN(Cc1cnc2nc(N)nc(N)c2n1)c1ccc(C(=O)N[C@@H](CCC(=O)O)C(=O)O)cc1 [METHOTREXATE]
Not Active: IC50 [1] | IC50 [2] | IC50 [3] | Ki [3] | IC50 [4] | IC50 [5] | IC50 [6] | IC50 [7] | Ki [7]

COC(=O)c1ccccc1O [METHYL SALICYLATE]
Not Active: IC50 [1] | IC50 [2] | IC50 [3] | Ki [3] | IC50 [4] | IC50 [5] | IC50 [6] | IC50 [7] | Ki [7]

COc1ccc2cc(CCC(C)=O)ccc2c1 [NABUMETONE]
Not Active: IC50 [1] | IC50 [2] | IC50 [3] | Ki [3] | IC50 [4] | IC50 [5] | IC50 [6] | IC50 [7] | Ki [7]

O=C(O)c1cccnc1 [NIACIN]
Not Active: IC50 [1] | IC50 [2] | IC50 [3] | Ki [3] | IC50 [4] | IC50 [5] | IC50 [6] | IC50 [7] | Ki [7]

CNC(=C[N+](=O)[O-])NCCSCc1csc(CN(C)C)n1 [NIZATIDINE]
Not Active: IC50 [1] | IC50 [2] | IC50 [3] | Ki [3] | IC50 [4] | IC50 [5] | IC50 [6] | IC50 [7] | Ki [7]

C[C@]12C/C(=C/O)C(=O)C[C@@H]1CC[C@@H]1[C@@H]2CC[C@@]2(C)[C@H]1CC[C@]2(C)O [OXYMETHOLONE]
Not Active: IC50 [1] | IC50 [2] | IC50 [3] | Ki [3] | IC50 [4] | IC50 [5] | IC50 [6] | IC50 [7] | Ki [7]
